# Data published in the supplement of paper PMC10307832.
# Columns and labels:
# Assay in all cases: relative viability (nuclei count vs DMSO), 5 days (fraction); higher = more cells survive
# Carboplatin + Luminespib = compound: C1CC(C1)(C(=O)O)C(=O)O.[NH2-].[NH2-].[Pt+2] [Carboplatin] + CCNC(=O)c1noc(-c2cc(C(C)C)c(O)cc2O)c1-c1ccc(CN2CCOCC2)cc1 [Luminespib] (partner 0.01 µM)
# Summary of the method: (§1)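 Relative viability was taken as the ratio of nuclei in treated wells to nuclei in vehicle wells. Lung cancer cell lines in 1536-well plates received compounds by pin tool one day after seeding, either one drug alone or a fixed anchor-drug dose plus five library-drug doses (not always all listed) in √10 steps. Nuclei were counted on 4× images after 5 days of treatment, and values are medians of duplicate plates.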
# Carboplatin + Dasatinib = compound: C1CC(C1)(C(=O)O)C(=O)O.[NH2-].[NH2-].[Pt+2] [Carboplatin] + Cc1nc(Nc2ncc(C(=O)Nc3c(C)cccc3Cl)s2)cc(N2CCN(CCO)CC2)n1 [Dasatinib] (partner 0.075 µM)
# Summary of the method: as §1
# GSK126 + OSI-027 = compound: CC[C@H](C)N1C=C(C2=C(C=C(C=C21)C3=CN=C(C=C3)N4CCNCC4)C(=O)NCC5=C(C=C(NC5=O)C)C)C [GSK126] + COc1cccc2cc(-c3nc([C@H]4CC[C@H](C(=O)O)CC4)n4ncnc(N)c34)[nH]c12 [OSI-027] (partner 0.5 µM)
# Summary of the method: as §1
# MLN4924 + Vorinostat = compound: NS(=O)(=O)OC[C@@H]1C[C@@H](n2ccc3c(N[C@H]4CCc5ccccc54)ncnc32)C[C@@H]1O [MLN4924] + O=C(CCCCCCC(=O)Nc1ccccc1)NO [Vorinostat] (partner 1 µM)
# Summary of the method: as §1
Cell Line,relative viability (Carboplatin + Luminespib; first compound 0.08 µM),relative viability (Carboplatin + Luminespib; first compound 0.253 µM),relative viability (Carboplatin + Luminespib; first compound 0.8 µM),relative viability (Carboplatin + Luminespib; first compound 2.53 µM),relative viability (Carboplatin + Luminespib; first compound 8 µM),relative viability (Carboplatin + Dasatinib; first compound 0.08 µM),relative viability (Carboplatin + Dasatinib; first compound 0.253 µM),relative viability (Carboplatin + Dasatinib; first compound 0.8 µM),relative viability (Carboplatin + Dasatinib; first compound 2.53 µM),relative viability (Carboplatin + Dasatinib; first compound 8 µM),relative viability (GSK126 + OSI-027; first compound 0.08 µM),relative viability (GSK126 + OSI-027; first compound 0.253 µM),relative viability (GSK126 + OSI-027; first compound 0.8 µM),relative viability (GSK126 + OSI-027; first compound 2.53 µM),relative viability (GSK126 + OSI-027; first compound 8 µM),relative viability (MLN4924 + Vorinostat; first compound 0.04 µM),relative viability (MLN4924 + Vorinostat; first compound 0.1265 µM),relative viability (MLN4924 + Vorinostat; first compound 0.4 µM),relative viability (MLN4924 + Vorinostat; first compound 1.265 µM),relative viability (MLN4924 + Vorinostat; first compound 4 µM)
HCC-827,0.653,0.675,0.441,0.452,0.3,0.327,0.326,0.337,0.35,0.432,0.803,0.83,0.768,0.768,0.776,0.805,0.716,0.636,0.242,0.215
HOP-62,0.957,0.876,0.819,0.799,0.719,0.711,0.711,0.645,0.728,0.575,0.888,0.845,0.869,0.867,0.798,0.395,0.378,0.116,0.0547,0.0779
IA-LM,,,,,,,,,,,,,,,,0.653,0.194,0.17,0.0544,0.0516
LC-2-ad,1.02,1.01,0.993,0.911,0.651,0.701,0.567,0.414,0.416,0.277,1.02,0.868,0.902,0.862,0.985,0.612,0.63,0.508,0.214,0.202
LCLC-97TM1,0.726,0.667,0.65,0.732,0.722,0.848,0.921,0.844,0.808,0.647,0.503,0.421,0.546,0.606,0.635,0.742,0.503,0.0752,0.0454,0.0589
LCLC-103H,0.918,1.09,0.859,0.908,0.905,0.481,0.55,0.524,0.482,0.445,0.514,0.453,0.533,0.435,0.456,0.763,0.771,0.372,0.252,0.282
LK-2,0.177,0.198,0.179,0.16,0.178,0.275,0.252,0.295,0.197,0.379,0.168,0.245,0.212,0.282,0.303,0.271,0.277,0.227,0.509,0.198
LOU-NH91,0.393,0.337,0.329,0.306,0.34,0.674,0.578,0.542,0.568,0.538,0.728,0.735,0.751,0.681,0.787,0.581,0.938,0.661,0.475,0.506
LU99A,0.29,0.319,0.247,0.188,0.211,0.562,0.559,0.511,0.39,0.384,0.341,0.324,0.275,0.311,0.296,0.514,0.381,0.3,0.119,0.106
LXF-289,0.79,0.787,0.601,0.677,0.568,0.327,0.24,0.223,0.264,0.232,0.838,0.86,0.784,0.877,0.768,0.654,0.506,0.462,0.143,0.115
NCI-H23,0.194,0.237,0.208,0.173,0.233,0.918,0.854,0.673,0.534,0.663,0.697,0.6,0.668,0.682,0.559,0.521,0.441,0.197,0.134,0.142
NCI-H322M,1.09,0.749,0.752,0.633,0.61,0.281,0.243,0.255,0.256,0.257,0.544,0.571,0.56,0.565,0.62,1.27,1.47,0.863,0.38,0.475
NCI-H358,0.359,0.77,0.259,0.409,0.222,0.162,0.171,0.163,0.178,0.18,1,0.85,0.812,0.904,0.897,0.621,0.479,0.264,0.0895,0.0817
NCI-H441,0.387,0.28,0.266,0.295,0.234,0.665,0.798,0.546,0.627,0.47,0.949,0.686,0.637,0.677,0.543,0.859,0.733,0.576,0.158,0.152
NCI-H1563,0.526,0.506,0.499,0.482,0.565,0.496,0.464,0.439,0.399,0.445,0.789,0.785,0.863,0.803,0.753,,,,,
NCI-H1623,0.548,0.469,0.457,0.507,0.433,0.583,0.553,0.57,0.506,0.469,0.414,0.473,0.425,0.504,0.401,,,,,
NCI-H1648,,,,,,,,,,,0.248,,0.265,0.242,0.252,0.249,0.296,0.276,0.224,0.309
NCI-H1792,0.492,0.36,0.44,0.415,0.267,0.831,0.776,0.816,0.692,0.62,0.643,0.796,0.679,0.786,0.675,,,,,
